# According to PubChem BioAssay (NCI):
#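 Here, GI50 denotes the concentration required for 50% inhibition of growth. At the TGI there is no net growth.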
# Tests used:
# Test in all cases: NCI anticancer screen, dose series, 384-well format
# [1] = tested on: 786-0 renal
# [2] = tested on: A498 renal
# [3] = tested on: A549 NSCLC
# [4] = tested on: ACHN renal
# [5] = tested on: BT-549 breast
# [6] = tested on: CAKI-1 renal
# [7] = tested on: CCRF-CEM leukemia
# [8] = tested on: COLO 205 colon
# [9] = tested on: DU-145 prostate
# [10] = tested on: EKVX NSCLC
# [11] = tested on: HCC-2998 colon
# [12] = tested on: HCT-15 colon
# [13] = tested on: HL-60(TB) leukemia
# [14] = tested on: HOP-62 NSCLC
# [15] = tested on: HOP-92 NSCLC
# [16] = tested on: HS 578T breast
# [17] = tested on: HT29 colon
# [18] = tested on: IGROV1 ovarian
# [19] = tested on: K-562 leukemia
# [20] = tested on: KM12 colon
# [21] = tested on: LOX IMVI melanoma
# [22] = tested on: M14 melanoma
# [23] = tested on: MALME-3M melanoma
# [24] = tested on: MCF7 breast
# [25] = tested on: MDA-MB-231 breast
# [26] = tested on: MDA-MB-435 melanoma
# [27] = tested on: MDA-MB-468 breast
# [28] = tested on: MOLT-4 leukemia
# [29] = tested on: NCI-H226 lung
# [30] = tested on: NCI-H23 lung
# [31] = tested on: NCI-H322M lung
# [32] = tested on: NCI-H460 NSCLC
# [33] = tested on: NCI-H522 lung
# [34] = tested on: NCI/ADR-RES ovarian
# [35] = tested on: OVCAR-3 ovarian
# [36] = tested on: OVCAR-4 ovarian
# [37] = tested on: OVCAR-5 ovarian
# [38] = tested on: OVCAR-8 ovarian
# [39] = tested on: PC-3 prostate
# [40] = tested on: RPMI-8226 leukemia
# [41] = tested on: RXF 393 renal
# [42] = tested on: SF-268 CNS
# [43] = tested on: SF-295 CNS
# [44] = tested on: SF-539 CNS
# [45] = tested on: SK-MEL-28 melanoma
# [46] = tested on: SK-MEL-5 melanoma
# [47] = tested on: SK-OV-3 ovarian
# [48] = tested on: SN12C renal
# [49] = tested on: SNB-19 CNS
# [50] = tested on: SNB-75 CNS
# [51] = tested on: SR leukemia
# [52] = tested on: SW-620 colon
# [53] = tested on: T-47D breast
# [54] = tested on: TK-10 renal
# [55] = tested on: UACC-257 melanoma
# [56] = tested on: UACC-62 melanoma
# [57] = tested on: UO-31 renal
compound,measurement,setting,value
Cc1nc(-c2cnc(NC(C)C)n(C)c2=O)ccc1Oc1ccnc(-c2cnn(C)c2)c1,GI50,[1],18.3 µM
same,TGI,[1],61.4 µM
same,GI50,[2],13.2 µM
same,TGI,[2],> 100 µM
same,GI50,[3],23.3 µM
same,TGI,[3],> 100 µM
same,GI50,[4],27.2 µM
same,TGI,[4],> 100 µM
same,GI50,[5],14 µM
same,TGI,[5],81.1 µM
same,GI50,[6],25.7 µM
same,TGI,[6],> 100 µM
same,GI50,[7],4.56 µM
same,TGI,[7],14.9 µM
same,GI50,[8],9.84 µM
same,TGI,[8],22.8 µM
same,GI50,[9],30.1 µM
same,TGI,[9],> 100 µM
same,GI50,[10],18.1 µM
same,TGI,[10],> 100 µM
same,GI50,[11],14.2 µM
same,TGI,[11],36.9 µM
same,GI50,[12],4.68 µM
same,TGI,[12],19.4 µM
same,GI50,[13],2.63 µM
same,TGI,[13],6.27 µM
same,GI50,[14],14.4 µM
same,TGI,[14],39.6 µM
same,GI50,[15],19.5 µM
same,TGI,[15],68.6 µM
same,GI50,[16],13.6 µM
same,TGI,[16],29.2 µM
same,GI50,[17],7.73 µM
same,TGI,[17],34.7 µM
same,GI50,[18],13.7 µM
same,TGI,[18],44.3 µM
same,GI50,[19],1.26 µM
same,TGI,[19],2.68 µM
same,GI50,[20],4.67 µM
same,TGI,[20],33.9 µM
same,GI50,[21],17.9 µM
same,TGI,[21],71.6 µM
same,GI50,[22],7.99 µM
same,TGI,[22],27.3 µM
same,GI50,[23],7.48 µM
same,TGI,[23],36.5 µM
same,GI50,[24],9.45 µM
same,TGI,[24],> 100 µM
same,GI50,[25],16.4 µM
same,TGI,[25],> 100 µM
same,GI50,[26],2.39 µM
same,TGI,[26],5.7 µM
same,GI50,[27],2.73 µM
same,TGI,[27],6.33 µM
same,GI50,[28],1.87 µM
same,TGI,[28],3.56 µM
same,GI50,[29],19 µM
same,TGI,[29],90.7 µM
same,GI50,[30],12.4 µM
same,TGI,[30],36 µM
same,GI50,[31],23.5 µM
same,TGI,[31],73.4 µM
same,GI50,[32],15.4 µM
same,TGI,[32],37.4 µM
same,GI50,[33],4.45 µM
same,TGI,[33],15.5 µM
same,GI50,[34],5.77 µM
same,TGI,[34],19.3 µM
same,GI50,[35],8.64 µM
same,TGI,[35],28 µM
same,GI50,[36],13.6 µM
same,TGI,[36],50.8 µM
same,GI50,[37],17.2 µM
same,TGI,[37],34.9 µM
same,GI50,[38],14.6 µM
same,TGI,[38],28.4 µM
same,GI50,[39],21 µM
same,TGI,[39],60.3 µM
same,GI50,[40],4.9 µM
same,TGI,[40],21.7 µM
same,GI50,[41],12.4 µM
same,TGI,[41],34.2 µM
same,GI50,[42],19.8 µM
same,TGI,[42],64.1 µM
same,GI50,[43],15.6 µM
same,TGI,[43],62.7 µM
same,GI50,[44],12.4 µM
same,TGI,[44],25.2 µM
same,GI50,[45],14.5 µM
same,TGI,[45],69.5 µM
same,GI50,[46],4.46 µM
same,TGI,[46],16.2 µM
same,GI50,[47],11.5 µM
same,TGI,[47],25.5 µM
same,GI50,[48],14.5 µM
same,TGI,[48],28.3 µM
same,GI50,[49],21.3 µM
same,TGI,[49],68.6 µM
same,GI50,[50],10.9 µM
same,TGI,[50],26.8 µM
same,GI50,[51],1.5 µM
same,TGI,[51],2.99 µM
same,GI50,[52],5.53 µM
same,TGI,[52],17.9 µM
same,GI50,[53],5.73 µM
same,TGI,[53],28.7 µM
same,GI50,[54],27.1 µM
same,TGI,[54],> 100 µM
same,GI50,[55],17.2 µM
same,TGI,[55],57.1 µM
same,GI50,[56],6.42 µM
same,TGI,[56],24.6 µM
same,GI50,[57],97.3 µM
same,TGI,[57],> 100 µM
